Patent publication US20060128729A1, “Novel bicyclic heterocyclic compounds, process for their preparation and compositions containing them” (priority 2004, published 2006)
Counter-ions that a name gives are not always drawn.

Tests used:
[1] = system: human aortic smooth muscle cells; test: Smooth muscle cell proliferation assay (radiolabeled thymidine incorporation or CellTiter AQ); assay type: cell-based; settings: human aortic SMC; for IC50: 24 h post treatment in serum-containing growth medium, read-out: Activity: concentration giving 50% inhibition of smooth muscle cell proliferation; for inhibition at 1 µM: 24 h post treatment
Protocol: Primary cultures of human aortic smooth muscle cells were obtained from Clonetics. SMC were initially grown in T-75 flasks prior to seeding in 96 well plates. The 96-well plates were seeded with 4000 cells/well. The following day cells were washed with serum free medium and left in serum free media for 24 hours for serum starvation. The next day cells received growth medium containing serum with or without compound. 24 h post treatment cell proliferation was assayed either assessing the incorporation of radiolabeled thymidine to DNA or using a non-radioactive cell proliferation kit from Promega (CellTiter AQ).

[2] = system: MCP-1 (monocyte chemoattractant protein 1); test: MCP-1 ELISA on supernatants of stimulated human aortic endothelial cells; assay type: cell-based; settings: Homo sapiens, Endothelial cell, HAECs treated with TNFα (0.05 ng/ml) or glycated human serum albumin (300 μg/ml) for 18-24 h; read-out: IC50 in MCP-1 enzyme-linked immunosorbent assay
Protocol: For inflammation assays, human aortic endothelial cells (HAECS) in 96 well plates were washed once with treatment medium (basal medium containing 1% FBS). Cells were treated with an inflammatory agent such as TNFα (0.05 ng/ml) or glycated human serum albumin (US Biologicals) as source of advanced glycation end products (AGEs) (300 μg/ml) for 18-24 h in the presence or absence of specified amount of compound. Cell supernatants were collected and used for the estimation of MCP-1 (monocyte chemoattractant protein 1) or IL-6 (interleukin-6) by ELISA. Cell layers were washed and used for determining the levels of vascular cell adhesion molecule-1 (VCAM-1).
MCP-1 ELISA was carried out using Quantikine Human MCP-1 kit as described by the manufacturer (R&D Systems, Inc.). Mouse anti-human MCP-1 was used as the capture antibody and HRP (horse radish peroxidase)-conjugated goat anti-human MCP-1 antibody was used as detection antibody. Culture medium was incubated with the capture antibody (in 96-well plate) for 2 h at room temperature. Wells were washed three times with wash buffer (0.05% Tween-20 in PBS) followed by incubation with detection antibody for 2 h at room temperature. Color development was read at […] in a microplate reader.

| IC50 [2] [nM] | melting point [°C] | SMILES | IC50 [1] [nM] | inhibition at 1 µM [1] [%] |
| --- | --- | --- | --- | --- |
| 1500 |  | COc1ccc(Nc2nc(-c3ccccc3)nc3c(C)nn(C)c23)cc1Cl [E 13, (3-chloro-4-methoxy-phenyl)-(1,3-dimethyl-5-phenyl-1H-pyrazolo[4,3-d]pyrimidin-7-yl)-amine hydrochloride] | 380 |  |
|  | 262 | COc1ccc(Nc2nc(-c3ccc(F)cc3)nc3c(C)nn(C)c23)cc1F.Cl [E 16, (3-fluoro-4-methoxy-phenyl)-[5-(4-fluoro-phenyl)-1,3-dimethyl-1H-pyrazolo[4,3-d]pyrimidin-7-yl]-amine hydrochloride] |  | 100 |
|  | > 240 | COc1ccc(Nc2nc(-c3ccc(F)cc3)nc3c(C)nn(C)c23)cc1Cl.Cl [E 17, (3-chloro-4-methoxy-phenyl)-[5-(4-fluoro-phenyl)-1,3-dimethyl-1H-pyrazolo[4,3-d]pyrimidin-7-yl]-amine hydrochloride] |  | 100 |
|  | 230 to 232 | Cc1nn(C)c2c(Nc3ccc4c(c3)OCO4)nc(-c3ccc(F)cc3)nc12.Cl [E 19, benzo[1,3]dioxol-5-yl-[5-(4-fluoro-phenyl)-1,3-dimethyl-1H-pyrazolo[4,3-d]pyrimidin-7-yl]-amine hydrochloride] | 450 |  |
|  | 230 to 232 | CCCc1nn(C)c2c(Nc3ccc(OC(F)(F)F)cc3)nc(-c3ccc(F)cc3)nc12.Cl [E 37, [5-(4-fluoro-phenyl)-1-methyl-3-propyl-1H-pyrazolo[4,3-d]pyrimidin-7-yl]-(4-trifluoromethoxy-phenyl)-amine hydrochloride] | 500 |  |
|  | 174 to 176 | Cc1nn(C)c2c(Nc3ccc(OC(F)(F)F)cc3)nc(-c3ccccc3)nc12.Cl [E 38, (1,3-dimethyl-5-phenyl-1H-pyrazolo[4,3-d]pyrimidin-7-yl)-(4-trifluoromethoxy-phenyl)-amine hydrochloride] | 230 |  |
|  | 176 to 178 | Cc1nn(C)c2c(-c3cccc(S(C)(=O)=O)c3)nc(-c3ccc(F)cc3)nc12 [E 68, 5-(4-fluoro-phenyl)-7-(3-methanesulfonyl-phenyl)-1,3-dimethyl-1H-pyrazolo[4,3-d]pyrimidine] |  |  |
|  | 156 to 158 | CCCc1nn(C)c2c(C#Cc3ccccc3)nc(-c3ccc(F)cc3)nc12 [E 70, 5-(4-fluoro-phenyl)-1-methyl-7-phenylethynyl-3-propyl-1H-pyrazolo[4,3-d]pyrimidine] |  |  |
|  | 114 to 116 | CCCc1nn(C)c2c(-n3ccc4ccccc43)nc(-c3ccc(F)cc3)nc12 [E 88, 5-(4-fluoro-phenyl)-7-indol-1-yl-1-methyl-3-propyl-1H-pyrazolo[4,3-d]pyrimidine] |  |  |
|  | 146 to 148 | CCCc1nn(C)c2c(-n3ccc4cc(Cl)ccc43)nc(-c3ccc(F)cc3)nc12 [E 89] |  |  |
|  | 141 to 143 | Cc1nn(C)c2c(-n3ccc4ccccc43)nc(-c3ccccc3)nc12 [E 90, 7-indol-1-yl-1,3-dimethyl-5-phenyl-1H-pyrazolo[4,3-d]pyrimidine] |  |  |
|  | 186 to 188 | Cc1nn(C)c2cc(-c3ccc(F)cc3)nc(-c3cccc(S(C)(=O)=O)c3)c12 [E 93, 6-(4-fluoro-phenyl)-4-(3-methanesulfonyl-phenyl)-1,3-dimethyl-1H-pyrazolo[4,3-c]pyridine] |  |  |
|  | 216 to 218 | Cc1nn(C)c2c(Nc3ccc(S(C)(=O)=O)cc3)nc(-c3ccc(F)cc3)nc12 [E 96, [5-(4-fluoro-phenyl)-1,3-dimethyl-1H-pyrazolo[4,3-d]pyrimidin-7-yl]-(4-methanesulfonyl-phenyl)-amine] | 1370 |  |
|  | 228 to 230 | Cc1nn(C)c2cc(-c3ccc(F)cc3)nc(-c3ccc(S(C)(=O)=O)cc3)c12 [E 98, 6-(4-fluoro-phenyl)-4-(4-methanesulfonyl-phenyl)-1,3-dimethyl-1H-pyrazolo[4,3-c]pyridine] |  |  |
|  | 86 to 88 | Cc1nn(C)c2c(N(C)C)nc(-c3ccccc3)nc12 [E 102, (1,3-dimethyl-5-phenyl-1H-pyrazolo[4,3-d]pyrimidin-7-yl)-dimethyl-amine] |  |  |

Further lines, the compound ahead of its results:

| SMILES | IC50 [2] [nM] | melting point [°C] | IC50 [1] [nM] | inhibition at 1 µM [1] [%] |
| --- | --- | --- | --- | --- |
| COc1ccc(Nc2nc(-c3ccccc3)nc3c(C)nn(C)c23)cc1F [E 14, (1,3-dimethyl-5-phenyl-1H-pyrazolo[4,3-d]pyrimidin-7-yl)-(3-fluoro-4-methoxy-phenyl)-amine hydrochloride] | 4000 |  | 430 |  |
| COc1ccc(Nc2nc(-c3cccs3)nc3c(C)nn(C)c23)cc1F.Cl [E 30, (1,3-dimethyl-5-thiophen-2-yl-1H-pyrazolo[4,3-d]pyrimidin-7-yl)-(3-fluoro-4-methoxy-phenyl)-amine hydrochloride] |  | 236 to 238 | 1450 |  |
| COc1ccc(Nc2nc(-c3cccs3)nc3c(C)nn(C)c23)cc1Cl.Cl [E 32, (3-chloro-4-methoxy-phenyl)-(1,3-dimethyl-5-thiophen-2-yl-1H-pyrazolo[4,3-d]pyrimidin-7-yl)-amine hydrochloride] |  | > 240 | 940 |  |
| Cc1nn(C)c2c(Nc3ccc4c(c3)OCO4)nc(-c3cccs3)nc12 [E 33, benzo[1,3]dioxol-5-yl-(1,3-dimethyl-5-thiophen-2-yl-1H-pyrazolo[4,3-d]pyrimidin-7-yl)-amine hydrochloride] |  |  | 540 |  |
| Cc1nn(C)c2c(Nc3ccc(C(F)(F)F)cc3)nc(-c3ccc(F)cc3)nc12.Cl [E 39, [5-(4-fluoro-phenyl)-1,3-dimethyl-1H-pyrazolo[4,3-d]pyrimidin-7-yl]-(4-trifluoromethyl-phenyl)-amine hydrochloride] |  | 250 to 252 | 330 |  |
| Cc1nn(C)c2c(Nc3ccc(S(=O)(=O)N(C)C)cc3)nc(-c3ccc(F)cc3)nc12.Cl [E 43, 4-[5-(4-fluoro-phenyl)-1,3-dimethyl-1H-pyrazolo[4,3-d]pyrimidin-7-ylamino]-N,N-dimethyl-benzenesulfonamide hydrochloride] |  | 254 to 256 | 930 |  |
| Cc1nn(C)c2c(Nc3ccc(S(N)(=O)=O)cc3)nc(-c3ccccc3)nc12 [E 44, 4-(1,3-dimethyl-5-phenyl-1H-pyrazolo[4,3-d]pyrimidin-7-ylamino)-benzenesulfonamide hydrochloride] |  |  | 2500 |  |
| Cc1nn(C)c2c(-c3cccc(S(C)(=O)=O)c3)nc(-c3ccccc3)nc12 [E 67, 7-(3-methanesulfonyl-phenyl)-1,3-dimethyl-5-phenyl-1H-pyrazolo[4,3-d]pyrimidine] |  | 210 to 212 |  |  |
| CCCc1nn(C)c2c(-c3ccc(S(C)(=O)=O)cc3)nc(-c3ccc(F)cc3)nc12 [E 69, 5-(4-fluoro-phenyl)-7-(4-methanesulfonyl-phenyl)-1-methyl-3-propyl-1H-pyrazolo[4,3-d]pyrimidine] |  | 208 to 210 |  |  |
| Cc1nn(C)c2cc(-c3ccc(F)cc3)nc(-c3ccc(OC(F)(F)F)cc3)c12 [E 94, 6-(4-fluoro-phenyl)-1,3-dimethyl-4-(4-trifluoromethoxy-phenyl)-1H-pyrazolo[4,3-c]pyridine] |  | 92 to 94 |  |  |
| Cc1nn(C)c2c(F)nc(-c3ccccc3)nc12 [E 99, 7-fluoro-1,3-dimethyl-5-phenyl-1H-pyrazolo[4,3-d]pyrimidine] |  | 110 to 112 |  |  |
| Cc1nn(C)c2cc(-c3ccc(F)cc3)nc(Nc3ccc(S(C)(=O)=O)cc3)c12 [E 100, [6-(4-fluoro-phenyl)-1,3-dimethyl-1H-pyrazolo[4,3-c]pyridin-4-yl]-(4-methanesulfonyl-phenyl)-amine] | 480 |  |  |  |
| Cc1nn(C)c2c(-c3ccc(OC(F)(F)F)cc3)nc(-c3ccc(F)cc3)nc12 [E 101, 5-(4-fluoro-phenyl)-1,3-dimethyl-7-(4-trifluoromethoxy-phenyl)-1H-pyrazolo[4,3-d]pyrimidine] |  | 170 to 172 |  |  |
